How the values were obtained:
[1] = tested on: Anopheles gambiae Kisumu-strain; assay: Basic insecticidal activity, topical application method (Test Example 1); type: in vivo; settings: for 50% Lethal Dose (LD50): female adults, 0.3 μL acetone solution on thoracodorsal region, mortality after 24 hours, probit method; for Relative Efficacy: relative to ethofenprox (=1), from LD50 values
Method: (§1) The basic insecticidal activity of the present compound was examined using a topical application method. Various concentrations of acetone solutions of the present compound were previously prepared. […] After the treatment, the female adult of Cancer Vieja Madara mosquito was moved into a plastic cup (having a diameter of 9 cm and a height of about 4.5 cm), and was fed with 5% sugar water. The mortality after 24 hours was examined. The number of the tested female adults of Cancer Vieja Madara mosquito was 10 heads per each one concentration in four replicate experiments. The 50% lethal dose (the LD50 value) of the present compound was calculated from the test result using probit method. The same experiment was conducted using ethofenprox as a control. The lower 50% lethal dose of a compound means the higher basic insecticidal activity of the compound. The ratio of the LD50 value of the present compound relative to the LD50 value of ethofenprox was calculated to acquire the relative efficacy of the present compound to ethofenprox.

[2] = tested on: Anopheles gambiae VK7-strain; assay: Basic insecticidal activity, topical application method, pyrethroid-resistive strain (Test Example 4); type: in vivo; settings: for 50% Lethal Dose (LD50): pyrethroid-resistive female adults, topical application, mortality after 24 hours; for Relative Efficacy: relative to deltamethrin (=1), from LD50 values
Method: as §1
The basic insecticidal activity of each of the present compound and deltamethrin was examined using the same method as that used in Test Example 1. Here the tested female adults of Cancer Vieja Madara mosquito were pyrethroid-resistive female adults of Cancer Vieja Madara mosquito (Anopheles gambiae VK7-strain), and the number of the tested insects was 10 heads per each one concentration in two replicate experiments. The ratio of the LD50 value of the present compound relative to the LD50 value of deltamethrin was calculated to acquire the relative efficacy of the present compound to deltamethrin.

| Compound | 50% Lethal Dose (LD50) [1] | Relative Efficacy [1] | 50% Lethal Dose (LD50) [2] | Relative Efficacy [2] |
| --- | --- | --- | --- | --- |
| CCOc1ccc(C(C)(C)COCc2cccc(Oc3ccccc3)c2)cc1 [Ethofenprox, ethofenprox] | 0.0021 μg/female | 1 |  |  |
| CC1(C)[C@H](C(=O)O[C@H](C#N)c2cccc(Oc3ccccc3)c2)[C@@H]1C=C(Br)Br [Deltamethrin, deltamethrin] |  |  | 0.00104 μg/female | 1 |
| CCc1ncnc(NCCc2ccc(C(F)(F)F)cc2)c1Cl [The present compound, 5-chloro-4-ethyl-6-[2-(4-trifluoromethylphenyl)ethylamino]pyrimidine] | 0.0094 μg/female | 0.22 | 0.01833 μg/female | 0.05674 |

— patent US10375960B2, “Resin composition including insecticidal component” ([…] Control Consortium, priority 2015, dated 2019)
